*1 amine or outer side, *2 acyl side, *3 side chain or, on linkers, in order; H or OH if unused. Where a SMILES comes first, the peptide text is derived from it. Side-chain parts run from the residue outwards. [ ]: non-standard residue; d: D form. The star is where a group is joined. PEG12 = NCCOCCOCCOCCOCCOCCOCCOCCOCCOCCOCCOCCOCCC(=O)O; γGlu = O=C(O)[C@H](CCC(=O)[*:2])N[*:1]; Stearoyl = CCCCCCCCCCCCCCCCCC(=O)*; Palmitoyl = CCCCCCCCCCCCCCCC(=O)*; PEG4 = NCCOCCOCCOCCOCCC(=O)O; αMeK = C[C@](N)(CCCCN)C(=O)O; Lauroyl = CCCCCCCCCCCC(=O)*; Nle = CCCC[C@H](N)C(=O)O; AEEA = NCCOCCOCC(=O)O; Aib = CC(C)(N)C(=O)O
Target: T1, RXFP1 (Homo sapiens, UniProt Q9HBX9)
T1 construct: OVCAR5 cells expressing endogenous RXFP1; endogenous in cells; host or cells: OVCAR5 cells
T1 sequence (Q9HBX9 1-757): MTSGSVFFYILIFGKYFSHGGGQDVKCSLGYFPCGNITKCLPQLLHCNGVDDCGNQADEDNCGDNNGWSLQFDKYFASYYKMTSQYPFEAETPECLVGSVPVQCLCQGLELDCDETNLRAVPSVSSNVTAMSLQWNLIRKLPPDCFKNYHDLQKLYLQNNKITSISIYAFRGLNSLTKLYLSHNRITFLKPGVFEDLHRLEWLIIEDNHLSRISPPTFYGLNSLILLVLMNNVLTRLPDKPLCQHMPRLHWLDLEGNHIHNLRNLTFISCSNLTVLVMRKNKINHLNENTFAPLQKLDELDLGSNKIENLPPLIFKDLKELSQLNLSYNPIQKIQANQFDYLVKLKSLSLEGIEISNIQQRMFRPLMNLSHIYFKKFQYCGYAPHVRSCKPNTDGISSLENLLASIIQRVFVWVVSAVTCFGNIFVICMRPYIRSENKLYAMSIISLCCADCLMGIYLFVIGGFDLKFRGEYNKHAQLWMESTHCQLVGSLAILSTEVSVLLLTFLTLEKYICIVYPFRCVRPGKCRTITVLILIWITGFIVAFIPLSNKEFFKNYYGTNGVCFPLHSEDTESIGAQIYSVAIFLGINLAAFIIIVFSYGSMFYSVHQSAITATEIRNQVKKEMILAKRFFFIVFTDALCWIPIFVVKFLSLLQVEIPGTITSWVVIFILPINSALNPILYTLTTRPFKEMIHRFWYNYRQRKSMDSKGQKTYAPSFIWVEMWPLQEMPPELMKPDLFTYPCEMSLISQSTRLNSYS
Test: OVCAR5 cAMP assay (HTRF), RXFP1 agonist activity
Assay type: cell-based
Conditions: OVCAR-5; maximal cAMP relative to H2-relaxin maximum (100%); read-out: EMax, OVCAR 5 cells (cAMP)
Method in brief: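 cAMP accumulation readout: after 1 mM IBMX for 40 min, endogenous-RXFP1 OVCAR5 cells got rising peptide concentrations without FCS, 30 min, 37° C, then lysis with HTRF cAMP reagents. Nonlinear regression gave EC50; Emax expressed relative to H2-relaxin maximum, same occasion.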

Emax [%]	SMILES
94	CCCCCCCCCCCC(=O)N[C@@H](CCC(=O)N[C@@H](CCC(=O)N[C@@H](CCC(=O)N[C@@H](CCC(=O)NCCCC[C@H](NC(=O)COCCOCCNC(=O)COCCOCCNC(=O)COCCOCCNC(=O)COCCOCCNC(=O)[C@H](CCCCNC(C)=O)NC(=O)[C@H](C)NC(=O)[C@H](CCCNC(=N)N)NC(=O)[C@](C)(CCCCN)NC(=O)[C@H](CO)NC(=O)[C@H](Cc1ccccc1)NC(=O)[C@@H](NC(=O)[C@H](CO)NC(=O)[C@H](CCC(N)=O)NC(=O)CNC(=O)[C@H](CCC(=O)O)NC(=O)C(C)(C)NC(=O)C(C)(C)NC(=O)[C@@H](NC(=O)[C@H](CCCCNC(C)=O)NC(=O)[C@H](C)NC(=O)[C@H](CCCNC(=N)N)NC(=O)[C@@H](NC(=O)[C@H](CCCCN)NC(=O)[C@H](CCC(=O)O)NC(=O)[C@H](CCCNC(=N)N)NC(=O)CNC(=O)[C@H](CCC(=O)O)NC(=O)[C@H](CC(C)C)NC(C)=O)C(C)C)[C@@H](C)CC)[C@@H](C)O)C(N)=O)C(=O)O)C(=O)O)C(=O)O)C(=O)O [compound 161] (Ac-LEGREKVRAK(Ac)I[Aib][Aib]EGQSTFS[αMeK]RAK(Ac)[AEEA][AEEA][AEEA][AEEA]K([γGlu-γGlu-γGlu-γGlu-Lauroyl])-NH2)
98	CCCCCCCCCCCCCCCC(=O)N[C@@H](CCC(=O)N[C@@H](CCC(=O)NCCOCCOCC(=O)NCCCC[C@H](NC(=O)[C@H](CCCCN)NC(=O)[C@H](CCCNC(=N)N)NC(=O)C(C)(C)NC(=O)[C@H](CO)NC(=O)[C@H](Cc1c[nH]c2ccccc12)NC(=O)[C@@H](NC(=O)[C@H](CO)NC(=O)[C@H](CCCC)NC(=O)CNC(=O)[C@H](CCC(=O)O)NC(=O)C(C)(C)NC(=O)C(C)(C)NC(=O)[C@@H](NC(=O)[C@H](C)NC(=O)[C@H](C)NC(=O)[C@H](CCCNC(=N)N)NC(=O)[C@@H](NC(=O)[C@H](CCCCN)NC(=O)[C@H](CCC(=O)O)NC(=O)[C@H](CCCNC(=N)N)NC(=O)CNC(=O)[C@H](CCC(=O)O)NC(=O)[C@H](CC(C)C)NC(=O)[C@H](CCC(=O)O)NC(C)=O)C(C)C)[C@@H](C)CC)[C@@H](C)O)C(N)=O)C(=O)O)C(=O)O [compound 54] (Ac-ELEGREKVRAAI[Aib][Aib]EG[Nle]STWS[Aib]RKK([AEEA-γGlu-γGlu-Palmitoyl])-NH2)
86	CCCCCCCCCCCCCCCCCC(=O)N[C@@H](CCC(=O)N[C@@H](CCC(=O)N[C@@H](CCC(=O)NCCOCCOCC(=O)NCCOCCOCC(=O)NCCCC[C@H](NC(=O)[C@H](CCCCN)NC(=O)[C@H](CCCCN)NC(=O)[C@H](CCCNC(=N)N)NC(=O)C(C)(C)NC(=O)[C@H](CO)NC(=O)[C@H](Cc1c[nH]c2ccccc12)NC(=O)[C@@H](NC(=O)[C@H](CO)NC(=O)[C@H](CCC(N)=O)NC(=O)CNC(=O)[C@H](CCC(=O)O)NC(=O)C(C)(C)NC(=O)C(C)(C)NC(=O)[C@@H](NC(=O)[C@H](CCC(N)=O)NC(=O)[C@H](C)NC(=O)[C@H](CCCNC(=N)N)NC(=O)[C@@H](NC(=O)[C@H](CCCCN)NC(=O)[C@H](CCC(=O)O)NC(=O)[C@H](CCCNC(=N)N)NC(=O)CNC(=O)[C@H](CCC(=O)O)NC(=O)[C@H](CC(C)C)NC(C)=O)C(C)C)[C@@H](C)CC)[C@@H](C)O)C(N)=O)C(=O)O)C(=O)O)C(=O)O [compound 70] (Ac-LEGREKVRAQI[Aib][Aib]EGQSTWS[Aib]RKKK([AEEA-AEEA-γGlu-γGlu-γGlu-Stearoyl])-NH2)
95	CCCCCCCCCCCCCCCCCC(=O)N[C@@H](CCC(=O)N[C@@H](CCC(=O)N[C@@H](CCC(=O)NCCCC[C@H](NC(=O)CCOCCOCCOCCOCCOCCOCCOCCOCCOCCOCCOCCOCCNC(=O)[C@H](CCCCN)NC(=O)[C@H](CCCNC(=N)N)NC(=O)C(C)(C)NC(=O)[C@H](CO)NC(=O)[C@H](Cc1c[nH]c2ccccc12)NC(=O)[C@@H](NC(=O)[C@H](CO)NC(=O)[C@H](CCSC)NC(=O)CNC(=O)[C@H](CCC(=O)O)NC(=O)C(C)(C)NC(=O)C(C)(C)NC(=O)[C@@H](NC(=O)[C@H](CCCCNC(C)=O)NC(=O)[C@H](C)NC(=O)[C@H](CCCNC(=N)N)NC(=O)[C@@H](NC(=O)[C@H](CCCCN)NC(=O)[C@H](CCC(=O)O)NC(=O)[C@H](CCCNC(=N)N)NC(=O)CNC(=O)[C@H](CCC(=O)O)NC(=O)[C@H](CC(C)C)NC(C)=O)C(C)C)[C@@H](C)CC)[C@@H](C)O)C(N)=O)C(=O)O)C(=O)O)C(=O)O [compound 35] (Ac-LEGREKVRAK(Ac)I[Aib][Aib]EGMSTWS[Aib]RK[PEG12]K([γGlu-γGlu-γGlu-Stearoyl])-NH2)
93	CCCCCCCCCCCCCCCCCC(=O)N[C@@H](CCC(=O)N[C@@H](CCC(=O)N[C@@H](CCC(=O)N[C@@H](CCC(=O)N[C@@H](CCC(=O)NCCCC[C@H](NC(=O)CCOCCOCCOCCOCCNC(=O)CCOCCOCCOCCOCCNC(=O)[C@H](CCCCN)NC(=O)[C@H](CCCCN)NC(=O)[C@H](CCCCN)NC(=O)[C@H](CCCNC(=N)N)NC(=O)C(C)(C)NC(=O)[C@H](CO)NC(=O)[C@H](Cc1c[nH]c2ccccc12)NC(=O)[C@@H](NC(=O)[C@H](CO)NC(=O)[C@H](CCCC)NC(=O)CNC(=O)[C@H](CCC(=O)O)NC(=O)C(C)(C)NC(=O)C(C)(C)NC(=O)[C@@H](NC(=O)[C@H](CCC(N)=O)NC(=O)[C@H](C)NC(=O)[C@H](CCCNC(=N)N)NC(=O)[C@@H](NC(=O)[C@H](CCCCN)NC(=O)[C@H](CCC(=O)O)NC(=O)[C@H](CCCNC(=N)N)NC(=O)CNC(=O)[C@H](CCC(=O)O)NC(=O)[C@H](CC(C)C)NC(C)=O)C(C)C)[C@@H](C)CC)[C@@H](C)O)C(N)=O)C(=O)O)C(=O)O)C(=O)O)C(=O)O)C(=O)O [compound 122] (Ac-LEGREKVRAQI[Aib][Aib]EG[Nle]STWS[Aib]RKKK[PEG4][PEG4]K([γGlu-γGlu-γGlu-γGlu-γGlu-Stearoyl])-NH2)
89	CCCCCCCCCCCCCCCCCC(=O)N[C@@H](CCC(=O)N[C@@H](CCC(=O)N[C@@H](CCC(=O)NCCOCCOCC(=O)NCCOCCOCC(=O)NCCOCCOCC(=O)NCCCC[C@H](NC(=O)[C@H](CCCCNC(C)=O)NC(=O)[C@H](CCCCN)NC(=O)[C@H](CCCNC(=N)N)NC(=O)C(C)(C)NC(=O)[C@H](CO)NC(=O)[C@H](Cc1c[nH]c2ccccc12)NC(=O)[C@@H](NC(=O)[C@H](CO)NC(=O)[C@H](CCC(N)=O)NC(=O)CNC(=O)[C@H](CCC(=O)O)NC(=O)C(C)(C)NC(=O)C(C)(C)NC(=O)[C@@H](NC(=O)[C@H](CCCCNC(C)=O)NC(=O)[C@H](C)NC(=O)[C@H](CCCNC(=N)N)NC(=O)[C@@H](NC(=O)[C@H](CCCCN)NC(=O)[C@H](CCC(=O)O)NC(=O)[C@H](CCCNC(=N)N)NC(=O)CNC(=O)[C@H](CCC(=O)O)NC(=O)[C@H](CC(C)C)NC(C)=O)C(C)C)[C@@H](C)CC)[C@@H](C)O)C(N)=O)C(=O)O)C(=O)O)C(=O)O [compound 113] (Ac-LEGREKVRAK(Ac)I[Aib][Aib]EGQSTWS[Aib]RKK(Ac)K([AEEA-AEEA-AEEA-γGlu-γGlu-γGlu-Stearoyl])-NH2)

From patent US10988523B2, “Modified lipidated Relaxin B chain peptides and their therapeutic use” (Sanofi, priority 2018, dated 2021)
